In patent publication US20230017045A1, “PYRIDINE AND PYRIMIDINE CARBOXYLATE HERBICIDES AND METHODS OF USE THEREOF” (Dow AgroSciences LLC, priority 2017, published 2023):

System: test plant species
Assay: Post-emergent herbicidal activity test (greenhouse, foliar spray, visual growth reduction)
Type: in vivo
Settings: post-emergence, 336 h, ECHCG: barnyardgrass (Echinochloa crus-galli), 140 g ai/ha, 14 days after application, read-out: Visual Growth Reduction (%) 14 Days After Application, ECHCG
How it was run: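 Seedlings were raised 7-21 d in a greenhouse under a 15 h photoperiod until the first or second true leaf. Each compound, dissolved in acetone:DMSO 97:3 and diluted into a surfactant-containing spray mixture, was then applied at 187 L/ha. Plants were subirrigated, and growth reduction was scored visually at 14 d.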

| Structure (SMILES) | pest or weed control at 140 g/ha |
| --- | --- |
| COC(=O)c1nc(-c2ccc(Cl)c(F)c2C)ccc1Cl [F298, Methyl 3-chloro-6-(4-chloro-3-fluoro-2-methylphenyl) picolinate] | 0 to 29% |
| COC(=O)c1nc(-c2cc(F)c(C(F)(F)F)cc2Cl)c(Cl)cc1Cl [F246, Methyl 3,5-dichloro-6-(2-chloro-5-fluoro-4-(trifluoromethyl)phenyl)picolinate] | 0 to 29% |
| O=C(O)c1nc(-c2cc3c(cc2F)OC(F)(F)O3)c(F)cc1Cl [F334, 3-Chloro-5-fluoro-6-(2,2,6-trifluorobenzo[d][1,3]dioxol-5-yl)picolinic acid] | 75 to 84% |

Same assay, conditions: post-emergence, 336 h, IPOHE: ivy-leaf morning glory (Ipomoea hederacea), 140 g ai/ha, 14 days after application, read-out: Visual Growth Reduction (%) 14 Days After Application, IPOHE

| Structure (SMILES) | pest or weed control at 140 g/ha |
| --- | --- |
| COC(=O)c1nc(-c2ccc(Cl)c(F)c2C)ccc1Cl [F298, Methyl 3-chloro-6-(4-chloro-3-fluoro-2-methylphenyl) picolinate] | 95 to 100% |
| COC(=O)c1nc(-c2cc(F)c(C(F)(F)F)cc2Cl)c(Cl)cc1Cl [F246, Methyl 3,5-dichloro-6-(2-chloro-5-fluoro-4-(trifluoromethyl)phenyl)picolinate] | 95 to 100% |
| O=C(O)c1nc(-c2cc3c(cc2F)OC(F)(F)O3)c(F)cc1Cl [F334, 3-Chloro-5-fluoro-6-(2,2,6-trifluorobenzo[d][1,3]dioxol-5-yl)picolinic acid] | 95 to 100% |

Same assay, conditions: post-emergence, 336 h, KCHSC: kochia (Bassia scoparia), 140 g ai/ha, 14 days after application, read-out: Visual Growth Reduction (%) 14 Days After Application, KCHSC

| Structure (SMILES) | pest or weed control at 140 g/ha |
| --- | --- |
| COC(=O)c1nc(-c2ccc(Cl)c(F)c2C)ccc1Cl [F298, Methyl 3-chloro-6-(4-chloro-3-fluoro-2-methylphenyl) picolinate] | 0 to 29% |
| COC(=O)c1nc(-c2cc(F)c(C(F)(F)F)cc2Cl)c(Cl)cc1Cl [F246, Methyl 3,5-dichloro-6-(2-chloro-5-fluoro-4-(trifluoromethyl)phenyl)picolinate] | 75 to 84% |
| O=C(O)c1nc(-c2cc3c(cc2F)OC(F)(F)O3)c(F)cc1Cl [F334, 3-Chloro-5-fluoro-6-(2,2,6-trifluorobenzo[d][1,3]dioxol-5-yl)picolinic acid] | 60 to 74% |

Same assay, conditions: post-emergence, 336 h, ORYSA: rice (Oryza sativa), 140 g ai/ha, 14 days after application, read-out: Visual Growth Reduction (%) 14 Days After Application, ORYSA

| Structure (SMILES) | pest or weed control at 140 g/ha |
| --- | --- |
| COC(=O)c1nc(-c2ccc(Cl)c(F)c2C)ccc1Cl [F298, Methyl 3-chloro-6-(4-chloro-3-fluoro-2-methylphenyl) picolinate] | 0 to 29% |
| COC(=O)c1nc(-c2cc(F)c(C(F)(F)F)cc2Cl)c(Cl)cc1Cl [F246, Methyl 3,5-dichloro-6-(2-chloro-5-fluoro-4-(trifluoromethyl)phenyl)picolinate] | 0 to 29% |
| O=C(O)c1nc(-c2cc3c(cc2F)OC(F)(F)O3)c(F)cc1Cl [F334, 3-Chloro-5-fluoro-6-(2,2,6-trifluorobenzo[d][1,3]dioxol-5-yl)picolinic acid] | 45 to 59% |

Same assay, conditions: post-emergence, 336 h, SETFA: giant foxtail (Setaria faberi), 140 g ai/ha, 14 days after application, read-out: Visual Growth Reduction (%) 14 Days After Application, SETFA

| Structure (SMILES) | pest or weed control at 140 g/ha |
| --- | --- |
| COC(=O)c1nc(-c2ccc(Cl)c(F)c2C)ccc1Cl [F298, Methyl 3-chloro-6-(4-chloro-3-fluoro-2-methylphenyl) picolinate] | 75 to 84% |
| COC(=O)c1nc(-c2cc(F)c(C(F)(F)F)cc2Cl)c(Cl)cc1Cl [F246, Methyl 3,5-dichloro-6-(2-chloro-5-fluoro-4-(trifluoromethyl)phenyl)picolinate] | 75 to 84% |
| O=C(O)c1nc(-c2cc3c(cc2F)OC(F)(F)O3)c(F)cc1Cl [F334, 3-Chloro-5-fluoro-6-(2,2,6-trifluorobenzo[d][1,3]dioxol-5-yl)picolinic acid] | 75 to 84% |

Same assay, conditions: post-emergence, 336 h, SORVU: grain sorghum (Sorghum vulgare), 140 g ai/ha, 14 days after application, read-out: Visual Growth Reduction (%) 14 Days After Application, SORVU

| Structure (SMILES) | pest or weed control at 140 g/ha |
| --- | --- |
| COC(=O)c1nc(-c2ccc(Cl)c(F)c2C)ccc1Cl [F298, Methyl 3-chloro-6-(4-chloro-3-fluoro-2-methylphenyl) picolinate] | 75 to 84% |
| COC(=O)c1nc(-c2cc(F)c(C(F)(F)F)cc2Cl)c(Cl)cc1Cl [F246, Methyl 3,5-dichloro-6-(2-chloro-5-fluoro-4-(trifluoromethyl)phenyl)picolinate] | 95 to 100% |
| O=C(O)c1nc(-c2cc3c(cc2F)OC(F)(F)O3)c(F)cc1Cl [F334, 3-Chloro-5-fluoro-6-(2,2,6-trifluorobenzo[d][1,3]dioxol-5-yl)picolinic acid] | 95 to 100% |

Same assay, conditions: post-emergence, 336 h, STEME: common chickweed (Stellaria media), 140 g ai/ha, 14 days after application, read-out: Visual Growth Reduction (%) 14 Days After Application, STEME

| Structure (SMILES) | pest or weed control at 140 g/ha |
| --- | --- |
| COC(=O)c1nc(-c2ccc(Cl)c(F)c2C)ccc1Cl [F298, Methyl 3-chloro-6-(4-chloro-3-fluoro-2-methylphenyl) picolinate] | 0 to 29% |
| COC(=O)c1nc(-c2cc(F)c(C(F)(F)F)cc2Cl)c(Cl)cc1Cl [F246, Methyl 3,5-dichloro-6-(2-chloro-5-fluoro-4-(trifluoromethyl)phenyl)picolinate] | 0 to 29% |
| O=C(O)c1nc(-c2cc3c(cc2F)OC(F)(F)O3)c(F)cc1Cl [F334, 3-Chloro-5-fluoro-6-(2,2,6-trifluorobenzo[d][1,3]dioxol-5-yl)picolinic acid] | 0 to 29% |

Same assay, conditions: post-emergence, 336 h, TRZAS: wheat, spring (Triticum aestivum), 140 g ai/ha, 14 days after application, read-out: Visual Growth Reduction (%) 14 Days After Application, TRZAS

| Structure (SMILES) | pest or weed control at 140 g/ha |
| --- | --- |
| COC(=O)c1nc(-c2ccc(Cl)c(F)c2C)ccc1Cl [F298, Methyl 3-chloro-6-(4-chloro-3-fluoro-2-methylphenyl) picolinate] | 0 to 29% |
| COC(=O)c1nc(-c2cc(F)c(C(F)(F)F)cc2Cl)c(Cl)cc1Cl [F246, Methyl 3,5-dichloro-6-(2-chloro-5-fluoro-4-(trifluoromethyl)phenyl)picolinate] | 0 to 29% |
| O=C(O)c1nc(-c2cc3c(cc2F)OC(F)(F)O3)c(F)cc1Cl [F334, 3-Chloro-5-fluoro-6-(2,2,6-trifluorobenzo[d][1,3]dioxol-5-yl)picolinic acid] | 75 to 84% |

Same assay, conditions: post-emergence, 336 h, blackgrass (Alopecurus myosuroides), 14 Days After Application, 140 g ai/ha, read-out: Visual Growth Reduction (%) ALOMY

| Structure (SMILES) | pest or weed control at 140 g/ha |
| --- | --- |
| COC(=O)c1nc(-c2ccc(Cl)c(F)c2C)ccc1Cl [F298, Methyl 3-chloro-6-(4-chloro-3-fluoro-2-methylphenyl) picolinate] | 0 to 29% |
| COC(=O)c1nc(-c2cc(F)c(C(F)(F)F)cc2Cl)c(Cl)cc1Cl [F246, Methyl 3,5-dichloro-6-(2-chloro-5-fluoro-4-(trifluoromethyl)phenyl)picolinate] | 45 to 59% |
| O=C(O)c1nc(-c2cc3c(cc2F)OC(F)(F)O3)c(F)cc1Cl [F334, 3-Chloro-5-fluoro-6-(2,2,6-trifluorobenzo[d][1,3]dioxol-5-yl)picolinic acid] | 75 to 84% |

Same assay, conditions: post-emergence, 336 h, canada thistle (Cirsium arvense), 14 Days After Application, 140 g ai/ha, read-out: Visual Growth Reduction (%) CIRAR

| Structure (SMILES) | pest or weed control at 140 g/ha |
| --- | --- |
| COC(=O)c1nc(-c2ccc(Cl)c(F)c2C)ccc1Cl [F298, Methyl 3-chloro-6-(4-chloro-3-fluoro-2-methylphenyl) picolinate] | 60 to 74% |
| COC(=O)c1nc(-c2cc(F)c(C(F)(F)F)cc2Cl)c(Cl)cc1Cl [F246, Methyl 3,5-dichloro-6-(2-chloro-5-fluoro-4-(trifluoromethyl)phenyl)picolinate] | 75 to 84% |

Same assay, conditions: post-emergence, 336 h, crabgrass (Digitaria sanguinalis), 14 Days After Application, 140 g ai/ha, read-out: Visual Growth Reduction (%) DIGSA

| Structure (SMILES) | pest or weed control at 140 g/ha |
| --- | --- |
| COC(=O)c1nc(-c2ccc(Cl)c(F)c2C)ccc1Cl [F298, Methyl 3-chloro-6-(4-chloro-3-fluoro-2-methylphenyl) picolinate] | 0 to 29% |
| COC(=O)c1nc(-c2cc(F)c(C(F)(F)F)cc2Cl)c(Cl)cc1Cl [F246, Methyl 3,5-dichloro-6-(2-chloro-5-fluoro-4-(trifluoromethyl)phenyl)picolinate] | 85 to 94% |
| O=C(O)c1nc(-c2cc3c(cc2F)OC(F)(F)O3)c(F)cc1Cl [F334, 3-Chloro-5-fluoro-6-(2,2,6-trifluorobenzo[d][1,3]dioxol-5-yl)picolinic acid] | 95 to 100% |

Same assay, conditions: post-emergence, 336 h, lambsquarters (Chenopodium album), 14 Days After Application, 140 g ai/ha, read-out: Visual Growth Reduction (%) CHEAL

| Structure (SMILES) | pest or weed control at 140 g/ha |
| --- | --- |
| COC(=O)c1nc(-c2ccc(Cl)c(F)c2C)ccc1Cl [F298, Methyl 3-chloro-6-(4-chloro-3-fluoro-2-methylphenyl) picolinate] | 75 to 84% |
| COC(=O)c1nc(-c2cc(F)c(C(F)(F)F)cc2Cl)c(Cl)cc1Cl [F246, Methyl 3,5-dichloro-6-(2-chloro-5-fluoro-4-(trifluoromethyl)phenyl)picolinate] | 95 to 100% |
| O=C(O)c1nc(-c2cc3c(cc2F)OC(F)(F)O3)c(F)cc1Cl [F334, 3-Chloro-5-fluoro-6-(2,2,6-trifluorobenzo[d][1,3]dioxol-5-yl)picolinic acid] | 75 to 84% |

Same assay, conditions: post-emergence, 336 h, redroot pigweed (Amaranthus retroflexus), 14 Days After Application, 140 g ai/ha, read-out: Visual Growth Reduction (%) AMARE

| Structure (SMILES) | pest or weed control at 140 g/ha |
| --- | --- |
| COC(=O)c1nc(-c2ccc(Cl)c(F)c2C)ccc1Cl [F298, Methyl 3-chloro-6-(4-chloro-3-fluoro-2-methylphenyl) picolinate] | 30 to 44% |
| COC(=O)c1nc(-c2cc(F)c(C(F)(F)F)cc2Cl)c(Cl)cc1Cl [F246, Methyl 3,5-dichloro-6-(2-chloro-5-fluoro-4-(trifluoromethyl)phenyl)picolinate] | 95 to 100% |
| O=C(O)c1nc(-c2cc3c(cc2F)OC(F)(F)O3)c(F)cc1Cl [F334, 3-Chloro-5-fluoro-6-(2,2,6-trifluorobenzo[d][1,3]dioxol-5-yl)picolinic acid] | 75 to 84% |

Same assay, conditions: post-emergence, 336 h, wild oat (Avena fatua), 14 Days After Application, 140 g ai/ha, read-out: Visual Growth Reduction (%) AVEFA

| Structure (SMILES) | pest or weed control at 140 g/ha |
| --- | --- |
| COC(=O)c1nc(-c2ccc(Cl)c(F)c2C)ccc1Cl [F298, Methyl 3-chloro-6-(4-chloro-3-fluoro-2-methylphenyl) picolinate] | 0 to 29% |
| COC(=O)c1nc(-c2cc(F)c(C(F)(F)F)cc2Cl)c(Cl)cc1Cl [F246, Methyl 3,5-dichloro-6-(2-chloro-5-fluoro-4-(trifluoromethyl)phenyl)picolinate] | 0 to 29% |
| O=C(O)c1nc(-c2cc3c(cc2F)OC(F)(F)O3)c(F)cc1Cl [F334, 3-Chloro-5-fluoro-6-(2,2,6-trifluorobenzo[d][1,3]dioxol-5-yl)picolinic acid] | 60 to 74% |

Same assay, conditions: post-emergence, 336 h, yellow nutsedge (Cyperus esculentus), 14 Days After Application, 140 g ai/ha, read-out: Visual Growth Reduction (%) CYPES

| Structure (SMILES) | pest or weed control at 140 g/ha |
| --- | --- |
| COC(=O)c1nc(-c2ccc(Cl)c(F)c2C)ccc1Cl [F298, Methyl 3-chloro-6-(4-chloro-3-fluoro-2-methylphenyl) picolinate] | 0 to 29% |
| COC(=O)c1nc(-c2cc(F)c(C(F)(F)F)cc2Cl)c(Cl)cc1Cl [F246, Methyl 3,5-dichloro-6-(2-chloro-5-fluoro-4-(trifluoromethyl)phenyl)picolinate] | 60 to 74% |
| O=C(O)c1nc(-c2cc3c(cc2F)OC(F)(F)O3)c(F)cc1Cl [F334, 3-Chloro-5-fluoro-6-(2,2,6-trifluorobenzo[d][1,3]dioxol-5-yl)picolinic acid] | 60 to 74% |
